In US7498029B2, “Photoimmunotherapies for cancer using combination therapies” (The General Hospital Corporation, priority 2001, dated 2009):
“Also recorded” adds a separate entry of the source.

Key:
[1] = Fluorescence decay and relative fluorescence quantum yield; assay type: physicochemical; conditions: 50% DMSO/50% aqueous solution
Method: In order to assess how conjugation to the antibody affected the ability of BPD to generate phototoxic species, relative fluorescence quantum yields and fluorescence decay signals for free BPD and for the various BPD PIC preparations were measured. Although fluorescence is a photophysical property of the singlet excited state of a photosensitizer, fluorescence quantum yields and decay times generally correlate with a photosensitizer's ability to generate phototoxic species. This correlation stems from the fact that a photosensitizer's phototoxic quantum yield usually correlates with its triplet quantum yield. […]
Fluorescence properties were measured in 50% DMSO/50% aqueous solutions in order to overcome the tendency of BPD to aggregate in a purely aqueous solution. Relative fluorescence quantum yields for free BPD and for various PIC samples with varying BPD:antibody molar loading ratios were calculated from the ratios of the slopes of fluorescence emission intensity versus absorbance plots. The fluorescence emission intensity versus absorbance plot for a given sample was generated by measuring the emission intensities of a series of dilute solutions prepared from a concentrated stock solution of the sample. […] Fluorescence emission intensity was measured as the area under the fluorescence emission peak in the 650 to 800 nm range. […]

[2] = Solubility and stability in DMSO/aqueous solutions and on storage; assay type: physicochemical; conditions: DMSO/aqueous solution
[3] = tested on: EGFR-overexpressing A-431 cells; assay: Phototoxicity and competition studies, MTT assay; assay type: cell-based, human; conditions: incubation periods much shorter than 6 hours
Method: Preliminary phototoxicity studies were conducted using EGFR-overexpressing A-431 cells.
Cells were plated in 2 ml of media in 35 mm tissue culture dishes at densities such that the cells reached approximately 60 to 80% confluence at the end of a three-day growth period. Following an initial period of at least 14 to 20 hours, which allowed for cells to attach and begin dividing, incubation with PICs or free BPD was initiated by replacing the original 2 ml of media with 2 to 4 ml of medium containing PIC or free BPD. Incubations were done at 37° C. and were begun with respect to the end of the three-day growth period. At the end of the three-day growth period, the medium containing PIC or free BPD was removed. Cells were washed once with 2 ml of DPBS, and 2 ml of fresh medium was added back to each dish. Cells were then immediately irradiated with the requisite light dose. Following irradiation, cells were incubated overnight at 37° C. and then assayed for viability by the calorimetric MTT assay (Mosmann, 1983). Except for the intended light dose, care was taken to protect the cells from light exposure at all times.
The radiation source was a dye laser pumped by an argon ion laser (models CR-599 and Innova 100, respectively, Coherent Inc., Palo Alto, Calif.). […]
NIH:OVCAR-5 cells [4] = assay: Long term survival, intraperitoneal ovarian carcinoma xenograft; assay type: in vivo, mice
Excerpt: A different group of animals was utilized to investigate survivability. Animals with rapid tumor progression leading to uncontrollable ascites or systemic illness were sacrificed. Animals were sacrificed based on the following parameters: loss of more than 15% body weight, severe pain not relieved by analgesics, self-mutilating behavior, inability or unwillingness to eat or drink, and weight gain of more than 20% body weight. At the time of necropsy, samples were weighed and collected as previously described.

[5] = Body weight loss of xenograft mice; assay type: in vivo; conditions: before tumor cell injection to day 21
Excerpt: Animals were weighed before tumor cell injection, and before sacrifice at day 21.

CHO-ERBB2 cells = assay: PDT/PIT phototoxicity, MTT assay, CHO-ERBB2 cells; assay type: cell-based; conditions: 140 nM, light dose of 2 J/cm^2, MTT 24 hours after illumination
Method: (§1) This light was focused to a spot of 3.5 cm diameter, which corresponded to a power density of circa 40 mW/cm^2.
(§2) To determine the survival fraction of cells after treatment, the 3-(4,5-dimethylthiazol-2-yl)-2,5-diphenyltetrazolium bromide (“MTT”) assay, which measured mitochondrial dehydrogenase activity, was used. Cells were incubated with 0.5 mg/ml MTT for 1 hour to measure its reduction by mitochondrial dehydrogenases.

OVCAR-5 cells = assay: PDT/PIT phototoxicity, MTT assay, OVCAR-5 cells; assay type: cell-based, human; conditions: with light, dose giving 50% survival after 24 hours, compared to control cells
Method: as §1, §2
The MTT assay was performed 24 and 72 hours after treatment.

EGFR = molecular target: T1, EGFR (Homo sapiens, UniProt P00533); assay: EGF-induced EGFR phosphorylation, Western blot in OVCAR 5 cells; assay type: cell-based; conditions: 10 ng/ml EGF 15 min
T1 construct: endogenous in cells; host or cells: OVCAR 5 cells
Method: (§3) Twenty-four hours after photodynamic treatment as described above, OVCAR 5 cells in the groups to be stimulated with EGF were incubated for 15 min with 10 ng/ml EGF in prewarmed culture medium. The groups that were not stimulated with EGF only received prewarmed culture medium. After the 15 minute incubation, cells were kept on ice and cell lysates were collected in RIPA buffer (containing 0.1% SDS and 1% NP-40). After protein determination by a modified Lowry assay (Biorad, Hercules, Calif.), the proteins were run on SDS-PAGE, transferred to a polyvinylidene diflouride (PVDF) membrane (Immobilon-P, Millipore, Bedford, Mass.) and probed with the first antibody. To detect the phosphorylation of the EGFR, the anti-phosphotyrosine antibody 4G10 (New England Biolabs; Beverly, Mass.) was used. A secondary goat anti-mouse antibody, coupled to horseradish peroxidase (Biorad), was used in combination with a chemiluminescence kit (Amersham, Arlington Heights, Ill.) to visualize the specific bands. Western blots were reprobed with anti-actin (Santa Cruz Biotechnology, Santa Cruz, Calif.) to control for equal loading.

Akt-1 = assay: EGF-induced Akt-1 phosphorylation, Western blot in OVCAR-5 cells; assay type: cell-based, human
Method: as §3
(§4) Two important pathways which are regulated by EGFR are the PI3K-Akt/PKB-1 and the Ras-MAPK/ERK pathway. These signaling molecules are implicated in a variety oncogenic pathways. […]

MAPK/ERK = assay: EGF-induced MAPK/ERK phosphorylation, Western blot in OVCAR-5 cells; assay type: cell-based, human
Method: as §3, §4

NIH:OVCAR-5 cells [6] = assay: Tumoricidal response, intraperitoneal ovarian carcinoma xenograft, tumor burden at day 21; conditions: for Tumor Burden: necropsy day 21; for Survival Fraction: tumor burden relative to no treatment
Method: NIH:OVCAR-5 cells were obtained from the Fox Chase Cancer Institute (Philadelphia, Pa.). Cells were grown in RPMI-1640 media (Mediatech Inc, Herndon, Va.) supplemented with 10% heat-inactivated fetal calf serum (GIBCO Life Technologies, Grand Island, N.Y.), and 100 U/ml penicillin and 100 μg/ml streptomycin. The cells were maintained in an incubator at 37° C. in an atmosphere of 5% CO2. At the time of NIH:OVCAR-5 cell injection, mice were given a numeric ear tag. Animals were anesthetized before the cell injection with 0.03 ml of a ketamine/xylazine mixture (ketamine, 120 mg/kg; xylazine, 15 mg/kg).
Intraperitoneal (“i.p.”) PDT in the nude mice was performed as previously described (Molpus et al., 1996a). On day 10 and 20 after tumor cell injection, mice in BPD treatment and/or control groups 2, 4, 6, and 8 were injected with 0.25 mg/kg body weight of liposomal BPD-MA i.p. 90 minutes prior to light exposure. Light was not administered to animals in groups 1, 2, 5, and 6. BPD-MA solutions were prepared immediately prior to use in sterile PBS (total of 1 ml). All work involving BPD-MA was performed in subdued lighting.
Animals which had to be illuminated were injected with 2 mL of a 0.1% intralipid solution i.p. prior to illumination to enhance light scattering. Animals were anesthetized with 0.03 ml of a ketamine/xylazine mixture (ketamine, 35 mg/ml; xylazine, 5 mg/ml). A solid state diode laser was used for illumination (BWF 690-1, B&W TEK, Newark, Del.), which delivers monochromatic light (690+/−5 nm) to overlap closely the absorption maximum of BPD-MA (690 nm), at a maximum power from the diode of 1 W. Alternatively, an argon-pumped dye laser (Coherent) was used to deliver 690 nm light i.p. via a cylindrically diffusing fiberoptic tip (8.0 mm×0.4 mm). The fiber, connected to the Argon-pumped dye laser or the solid state diode laser was introduced into the peritoneal cavity of a supine anesthetized animal via a centrally placed 22-gauge catheter traversing the abdominal cavity. A total of 20 J of light was delivered, at a fluence rate of 100-200 mw/cm^2. Of the total light energy, one fourth (5 J) was delivered to each i.p. quadrant over equivalent time periods. At the completion of the treatment, the mice were allowed to recover in an animal warmer until they awoke and resumed normal activity.
Two endpoints were studied. The first endpoint studied was short-term tumor weight. The second endpoint studied was long-term survival. In the short-term tumor weight studies, animals were sacrificed on day 21 to assess acute treatment effects. Animals were also carefully examined for the presence of distinct extra-abdominal metastasis. Representative tissue samples were examined pathologically via hematoxylin and eosin staining.
Tumoricidal response was assessed by comparing the extent of gross residual disease in treated animals to the extent of disease in untreated controls. Using the distribution pattern of the tumor in the OVCAR-5 human xenograft mouse model, which 20 was previously described (Molpus et al., 1996b), the sites where tumor was consistently present were dissected.

[7] = no light, BPD […] i.p. days 10, 20, C225 0.5 mg i.p. days 11, 14, 17, 19
[8] = with light (20 J, 690 nm i.p.), same doses

Substance: BPD Verteporfin
- weighted-average fluorescence decay lifetime ([1]; emission 700 nm): 6.02 ns
- relative fluorescence quantum yield ([1]; excitation 428 nm): 1.00
- DMSO content above which free BPD goes from predominantly aggregated to predominantly disaggregated monomeric state [2]: > 40%
- phototoxic cell killing [3]: greater than 90%
- survival compared with untreated mice (NIH:OVCAR-5 cells [4]; comparison of survival curves, PDT and combination with light, C225 alone without): significantly longer survival rates
- mice still alive after 6 months (180 days) (NIH:OVCAR-5 cells [4]; with light, 9 mice per group): 10%
- 50% alive (NIH:OVCAR-5 cells [4]; with light, days on which 50% of the mice have died): 36 (CI 32-90) days
- Weight Loss In Grams [5, 7]: 2.01 Grams
- Weight Loss In Grams [5, 8]: 2.14 Grams
- viability (CHO-ERBB2 cells): less than 20%
- increase in MTT activity between the 24 and 72 hours time-point (OVCAR-5 cells): 15%
- EGF-induced EGFR phosphorylation (EGFR; 140 nM alone, no light): reacted like control cells
- EGF-induced EGFR phosphorylation (EGFR; 140 nM plus light): did not inhibit; also recorded: no inhibitory effect
- EGF-induced phosphorylation of Akt-1 (Akt-1; alone, no light): responded like control cells
- EGF-induced phosphorylation of Akt-1 (Akt-1; plus light): did not have an inhibitory effect; also recorded: not by treatment with BPD plus light
- EGF-induced phosphorylation of MAPK/ERK (MAPK/ERK; alone, no light): responded like control cells
- EGF-induced phosphorylation of MAPK/ERK (MAPK/ERK; plus light): did not have an inhibitory effect; also recorded: not by treatment with BPD plus light
- DL (NIH:OVCAR-5 cells [6]; Steel-Peckham interaction of the components in the formula, with light (hv)): 0.493
- Effect (NIH:OVCAR-5 cells [6]; Steel-Peckham interaction, with light (hv)): synergistic
- lnSF (NIH:OVCAR-5 cells [6]; no light): −0.4084
- Tumor Burden (NIH:OVCAR-5 cells [6]; [7]): 469 mg
- Survival Fraction (NIH:OVCAR-5 cells [6]; no light): 0.69
- lnSF (NIH:OVCAR-5 cells [6]; with light): −0.962
- Tumor Burden (NIH:OVCAR-5 cells [6]; [8]): 261 mg
- tumor burden as % of the no treatment control group (NIH:OVCAR-5 cells [6]; with light, day 21): 38%
- tumor burden in the bowel mesentery (NIH:OVCAR-5 cells [6]; with light, day 21): statistically significant reduction in tumor burden
- Survival Fraction (NIH:OVCAR-5 cells [6]; with light): 0.38
